The source made the active and inactive calls.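 The calls were made as follows: active = growth-inhibition EC50 no more than tenfold above the top tested dose; inconclusive = flat fit between 30% and 70% inhibition, or unreliable fit; inactive = EC50 more than tenfold above the top tested dose.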
The molecules below were run on E. coli NEB5alpha growth, BacTiter-Glo luminescence, 4 h (assay: Escherichia coli growth inhibition, dose response, counter-screen for MEX-5/POS-1 RNA-binding inhibitor project, luminescence, NEB5alpha (AID 1959);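 also: pUC19-transformed ampicillin-resistant cells grown in LB with ampicillin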).

**Q.** CCCNC(=O)c1ccc2c(=O)c(O)c(-c3ccc(F)cc3)[nH]c2c1 was tested. Which EC50 did it give?
**A.** The EC50 was > 11 µM (inactive).

**Q.** Which EC50 does the source give for CN(C)C1=NC(=O)/C(=C/c2ccc(-c3ccc(S(N)(=O)=O)cc3)o2)S1 here?
**A.** Its EC50 is > 11 µM (inactive).

**Q.** Which EC50 does the source give for CCOc1cc(C(c2c(C)[nH][nH]c2=O)c2c(C)[nH][nH]c2=O)ccc1O here?
**A.** The EC50 was > 11 µM (inactive).

**Q.** How did the EC50 turn out when CC(=O)c1sc2nc(-c3cccs3)cc(C(F)(F)F)c2c1N was run?
**A.** The EC50 was > 11 µM (inactive).

**Q.** With COc1ccc(NC(=O)C2Cc3ccccc3CN2C(=O)c2ccccc2)cn1 (configuration not stated) as the molecule, how does the EC50 read?
**A.** Its EC50 is > 11 µM (inactive).

**Q.** For CC(C)(O)[C@H]1O[C@H]2CC[C@@]3(C)[C@@](O)(CC[C@H]4Cc5c([nH]c6ccccc56)[C@@]43C)C2=CC1=O, which EC50 is on record?
**A.** The EC50 was > 11 µM (inactive).

**Q.** How did the EC50 turn out when CCN1C(=O)/C(=C/c2c(C)nn(C)c2C)SC1=S was run?
**A.** Its EC50 is > 11 µM (inactive).

**Q.** For O=C(Cc1ccccc1)NNC(=O)c1cnccn1, which EC50 is on record?
**A.** Its EC50 is > 11 µM (inactive).

**Q.** For C=CCN1C(=O)NC(=O)/C(=C/c2ccc(OCC(=O)Nc3ccc(C)cc3)cc2)C1=O, which EC50 is on record?
**A.** Its EC50 is > 11 µM (inactive).

**Q.** For COc1ccc(CCNC(=O)c2cc3c(=O)n4cccc(C)c4nc3n(CCCN3CCOCC3)c2=N)cc1, which EC50 is on record?
**A.** Its EC50 is > 11 µM (inactive).

**Q.** Which EC50 does the source give for Cc1cc(/C=c2\sc3nc4ccccc4n3c2=O)c(C)n1-c1ccc(C(=O)O)cc1 here?
**A.** Its EC50 is > 11 µM (inactive).

**Q.** For Cc1[nH]c2ccccc2c1/C=N/NC(=S)NC(C)C, which EC50 is on record?
**A.** Its EC50 is > 11 µM (inactive).

**Q.** How did the EC50 turn out when CC1(OC(=O)c2ccco2)C(=O)C=C2C=C(c3ccc(C#N)cc3)OC=C2C1=O (configuration not stated) was run?
**A.** Its EC50 is > 11 µM (inactive).

**Q.** COC(=O)c1ccccc1-n1cccc1C(=O)NP(=O)(N1CCOCC1)N1CCOCC1 was tested. Which EC50 did it give?
**A.** The EC50 was > 11 µM (inactive).

**Q.** N=c1c(C(=O)NC2CCCCC2)cc2c(=O)n3ccccc3nc2n1Cc1ccc(F)cc1 was tested. Which EC50 did it give?
**A.** The EC50 was > 11 µM (inactive).

**Q.** For Cc1ccc(C)c(N2CCN(C(=O)c3cc4ccccn4n3)CC2)c1, which EC50 is on record?
**A.** The EC50 was > 11 µM (inactive).

**Q.** Which EC50 does the source give for CC1(OC(=O)c2cccs2)C(=O)C=C2C=C(C3CC3)OC=C2C1=O (configuration not stated) here?
**A.** Its EC50 is > 11 µM (inactive).

**Q.** Which EC50 does the source give for Cc1cccc(C)c1NC(=O)NN=C1CCCCC1 here?
**A.** The EC50 was > 11 µM (inactive).

**Q.** Which EC50 does the source give for O=C(O)C(=O)/C(=C\c1ccsc1)c1ccc2ccccc2n1 here?
**A.** The EC50 was > 11 µM (inactive).

**Q.** Which EC50 does the source give for Cc1cc(O)c(C(C)C)cc1N=C1CSC(=O)N1 here?
**A.** Its EC50 is > 11 µM (inactive).

**Q.** With O=C(NN1C(=O)c2ccccc2NC1c1ccccn1)c1ccc(Br)cc1 (configuration not stated) as the molecule, how does the EC50 read?
**A.** Its EC50 is > 11 µM (inactive).

**Q.** With CCOC(=O)C1Nc2ccc(C(=O)O)cc2C2C=CCC12 (configuration not stated) as the molecule, how does the EC50 read?
**A.** The EC50 was > 11 µM (inactive).

**Q.** With COc1ccc(C2C(C#N)=C(N)OC3=C2C(=O)CCC3)c(OC)c1OC (configuration not stated) as the molecule, how does the EC50 read?
**A.** The EC50 was > 11 µM (inactive).

**Q.** With COC(=O)[C@H](CCSC)NC(=O)NC1CCN(Cc2ccccc2)CC1 as the molecule, how does the EC50 read?
**A.** The EC50 was > 11 µM (inactive).

**Q.** With CC1(OC(=O)c2cccs2)C(=O)C=C2C=C3CCCN3C=C2C1=O (configuration not stated) as the molecule, how does the EC50 read?
**A.** Its EC50 is > 11 µM (inactive).

**Q.** With Cn1c(O)c(/C=C2/C=CC=N2)c(=O)[nH]c1=O as the molecule, how does the EC50 read?
**A.** Its EC50 is > 11 µM (inactive).

**Q.** Which EC50 does the source give for COc1cccc(C(=O)NNc2nc(C)cc(C)n2)c1 here?
**A.** Its EC50 is > 11 µM (inactive).

**Q.** For Cc1ccc(/C=C2\C(=O)NC(=O)N(CC3CCCO3)C2=O)s1 (configuration not stated), which EC50 is on record?
**A.** Its EC50 is > 11 µM (inactive).

**Q.** How did the EC50 turn out when CCCCN(C(=O)c1ccc([N+](=O)[O-])o1)c1c(N)n(CC(C)C)c(=O)[nH]c1=O was run?
**A.** The EC50 was > 11 µM (inactive).

**Q.** O=C(NNC(=S)NC(=O)c1ccccc1[N+](=O)[O-])c1ccccc1O was tested. Which EC50 did it give?
**A.** Its EC50 is > 11 µM (inactive).

**Q.** With N#CC1=C(N)OC2=C(C(=O)CCC2)C1c1ccc(OC(=O)N2CCOCC2)cc1 (configuration not stated) as the molecule, how does the EC50 read?
**A.** The EC50 was > 11 µM (inactive).

**Q.** For COC(=O)CCCC1=CC2=CC(=O)C(C)(OC(=O)c3ccc(Cl)nc3)C(=O)C2=CO1 (configuration not stated), which EC50 is on record?
**A.** The EC50 was > 11 µM (inactive).

**Q.** With COc1ccc(C2C(C(=O)c3cccs3)=C(O)C(=O)N2c2nnc(C)s2)cc1OC (configuration not stated) as the molecule, how does the EC50 read?
**A.** Its EC50 is > 11 µM (inactive).

**Q.** With Cc1c(C(=O)O)cccc1-n1c(C)cc(/C=N/Nc2ccc([N+](=O)[O-])cn2)c1C as the molecule, how does the EC50 read?
**A.** Its EC50 is > 11 µM (inactive).

**Q.** Which EC50 does the source give for COc1cc(NCCCC(C)N)c2ncccc2c1 (configuration not stated) here?
**A.** Its EC50 is > 11 µM (inactive).

**Q.** How did the EC50 turn out when COc1ccc(N2C(=O)/C(=C/c3ccc(C)o3)C(=O)NC2=S)cc1 was run?
**A.** The EC50 was > 11 µM (inactive).

**Q.** For COc1cccc(C2C(C#N)=C(N)OC3=C2C(=O)CC(c2ccco2)C3)c1OCc1ccc(F)cc1 (configuration not stated), which EC50 is on record?
**A.** Its EC50 is > 11 µM (inactive).

**Q.** Which EC50 does the source give for N#Cc1c(N)nc(SCc2ccccc2)c(C#N)c1-c1ccco1 here?
**A.** Its EC50 is > 11 µM (inactive).

**Q.** With COc1ccc(C2C(C#N)=C(N)OC3=C2C(=O)CCC3)cc1OC (configuration not stated) as the molecule, how does the EC50 read?
**A.** The EC50 was > 11 µM (inactive).

**Q.** For CCOC(=O)C1CCN(C(=O)CCC(=O)NNc2nc3ccccc3c3nc(C)nn23)CC1, which EC50 is on record?
**A.** The EC50 was > 11 µM (inactive).

**Q.** Which EC50 does the source give for COc1ccc(C2C(C#N)=C(N)OC3=C2C(=O)CC(C)C3)c(OC)c1OC (configuration not stated) here?
**A.** The EC50 was > 11 µM (inactive).

**Q.** For N#CC1=C(N)OC2=C(C(=O)CCC2)C1c1cc2c(cc1Br)OCO2 (configuration not stated), which EC50 is on record?
**A.** Its EC50 is > 11 µM (inactive).

**Q.** For CC1(OC(=O)CCc2ccccc2)C(=O)C=C2C=C(c3ccsc3)OC=C2C1=O (configuration not stated), which EC50 is on record?
**A.** Its EC50 is > 11 µM (inactive).

**Q.** With CSc1nnc(SCc2nc3sc(C(=O)O)c(C)c3c(=O)[nH]2)s1 as the molecule, how does the EC50 read?
**A.** The EC50 was > 11 µM (inactive).

**Q.** Which EC50 does the source give for CNc1ccc2nc3ccccc3[n+](C)c2c1 here?
**A.** The EC50 was > 11 µM (inactive).

**Q.** How did the EC50 turn out when CC(=O)N1CCc2c(sc(NC(=O)C3CCCN3S(=O)(=O)c3cccs3)c2C(N)=O)C1 (configuration not stated) was run?
**A.** Its EC50 is > 11 µM (inactive).

**Q.** Which EC50 does the source give for CN1C(=O)/C(=C/c2ccc3c(c2)OCO3)N=C1c1ccccc1 here?
**A.** The EC50 was > 11 µM (inactive).

**Q.** For O=C(Nc1ccnn1C1CCN(CC2CC=CCC2)CC1)c1ccccc1 (configuration not stated), which EC50 is on record?
**A.** The EC50 was > 11 µM (inactive).

**Q.** Cc1cc(C)c2c(c1)NC(c1cc3c(cc1Br)OCO3)C1CC=CC21 (configuration not stated) was tested. Which EC50 did it give?
**A.** The EC50 was > 11 µM (inactive).

**Q.** CN(C)S(=O)(=O)c1cccc(NC(=S)N/N=C/c2ccc(O)c(O)c2O)c1 was tested. Which EC50 did it give?
**A.** The EC50 was > 11 µM (inactive).

**Q.** How did the EC50 turn out when CC1=CC(C)(C)N2C(=O)C3(C(C#N)=C(N)OC4=C3C(=O)CC(C)(C)C4)c3c(C)c(C)cc1c32 (configuration not stated) was run?
**A.** Its EC50 is > 11 µM (inactive).

**Q.** With Cc1ccc(O)c(-c2cc(C(=O)Nc3ccc(S(=O)(=O)Nc4nccc(C)n4)cc3)[nH]n2)c1 as the molecule, how does the EC50 read?
**A.** Its EC50 is > 11 µM (inactive).

**Q.** For COc1ccc(N2C(=O)NC(=O)/C(=C/c3ccc([N+](=O)[O-])s3)C2=O)cc1, which EC50 is on record?
**A.** Its EC50 is > 11 µM (inactive).

**Q.** COC(=O)CCCC1=CC2=CC(=O)C(C)(OC(=O)c3ccco3)C(=O)C2=CO1 (configuration not stated) was tested. Which EC50 did it give?
**A.** Its EC50 is > 11 µM (inactive).

**Q.** For CCOC(=O)c1ccc2c(c1)C1C=CCC1C(C(=O)OCC)N2 (configuration not stated), which EC50 is on record?
**A.** The EC50 was > 11 µM (inactive).

**Q.** CCOc1cc(/C=C2/C(=O)ON=C2C)ccc1OCc1ccccc1F was tested. Which EC50 did it give?
**A.** The EC50 was > 11 µM (inactive).

**Q.** With COc1ccc(/C(C)=N/Nc2nc3ccccc3nc2C)cc1OC as the molecule, how does the EC50 read?
**A.** The EC50 was > 11 µM (inactive).

**Q.** With N#Cc1ccccc1CN1C(=O)S/C(=C/c2cccn2-c2ccc(C(=O)O)cc2)C1=O as the molecule, how does the EC50 read?
**A.** Its EC50 is > 11 µM (inactive).

**Q.** How did the EC50 turn out when Cc1ccc(NC(=O)Cn2c(=O)c(C)nc3ccccc32)cc1 was run?
**A.** The EC50 was > 11 µM (inactive).

**Q.** With CCc1c(C)nc(SCC(=O)NNC(=O)c2ccco2)[nH]c1=O as the molecule, how does the EC50 read?
**A.** The EC50 was > 11 µM (inactive).

**Q.** How did the EC50 turn out when O=C1c2ccccc2-c2onc3ccc(NCc4ccco4)c1c23 was run?
**A.** The EC50 was > 11 µM (inactive).

**Q.** How did the EC50 turn out when O=C(CCl)NCCN1C(=O)S/C(=C\c2cccnc2)C1=O was run?
**A.** Its EC50 is > 11 µM (inactive).

**Q.** Which EC50 does the source give for COc1ccccc1NC(=O)/C(C#N)=C/c1cc([N+](=O)[O-])ccc1N1CCCC1 here?
**A.** The EC50 was > 11 µM (inactive).

**Q.** How did the EC50 turn out when Cc1cc(/C=C(\C#N)C(=O)Nc2ccccc2)c(C)n1-c1ccc(C(=O)O)cc1 was run?
**A.** Its EC50 is > 11 µM (inactive).

**Q.** C/C(N)=C(/C#N)C(=O)CSc1ncnc2ccccc12 was tested. Which EC50 did it give?
**A.** The EC50 was > 11 µM (inactive).

**Q.** COc1cccc(C(=O)NCC(=O)NNc2ncnc(N)c2[N+](=O)[O-])c1 was tested. Which EC50 did it give?
**A.** The EC50 was > 11 µM (inactive).

**Q.** O=C(CCN1C(=O)C2CC=C(Cl)CC2C1=O)N1CCCCC1 (configuration not stated) was tested. Which EC50 did it give?
**A.** Its EC50 is > 11 µM (inactive).
